From PubChem BioAssay AID256 (DTP/NCI, 2004) come the findings set out here.

“And” between values parts separate entries of the source, which are not always exact repeats. Equal values may be shown once. Inconclusive results and toxic doses are left out.

For the experiment, the system named is CD2F1 mice, L1210 leukemia ip, survival T/C. Nature of the experiment: NCI In Vivo Anticancer Drug Screen. Data for tumor model L1210 Leukemia (intraperitoneal) in CD2F1 (CDF1) mice. The conditions noted are these: higher = longer survival. Summed up: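 Ratio T/C, where T is the treated-group value and C the vehicle-dosed control value, from mice implanted with a transplantable tumor.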

Setting [1] is: endpoint: mean survival time, dose: 100.0 mg/kg/injection, schedule: Q04DX003 (ip), vehicle: saline with Tween-80.
Where [2] appears, read: endpoint: mean survival time, dose: 200.0 mg/kg/injection, schedule: Q04DX003 (ip), vehicle: saline with Tween-80.
Setting [3] is: endpoint: mean survival time, dose: 400.0 mg/kg/injection, schedule: Q04DX003 (ip), vehicle: saline with Tween-80.
Setting [4] is: endpoint: mean survival time, dose: 25.0 mg/kg/injection, schedule: Q01DX009 (ip), vehicle: saline with Tween-80.
Where [5] appears, read: endpoint: mean survival time, dose: 50.0 mg/kg/injection, schedule: Q01DX009 (ip), vehicle: saline with Tween-80.
The mark [6] stands for this setting: endpoint: mean survival time, dose: 50.0 mg/kg/injection, schedule: Q04DX003 (ip), vehicle: saline with Tween-80.
Setting [7] is: endpoint: mean survival time, dose: 100.0 mg/kg/injection, schedule: Q01DX009 (ip), vehicle: saline with Tween-80.
The mark [8] stands for this setting: endpoint: mean survival time, dose: 100.0 mg/kg/injection, schedule: Q01DX001 (ip), vehicle: saline.
Setting [9] is: endpoint: mean survival time, dose: 200.0 mg/kg/injection, schedule: Q01DX001 (ip), vehicle: saline.
Setting [10] is: endpoint: mean survival time, dose: 400.0 mg/kg/injection, schedule: Q01DX001 (ip), vehicle: saline.
Where [11] appears, read: endpoint: mean survival time, dose: 200.0 mg/kg/injection, schedule: Q01DX009 (ip), vehicle: saline with Tween-80.
[12] abbreviates: endpoint: mean survival time, dose: 100.0 mg/kg/injection, schedule: Q04DX003 (ip), vehicle: saline.
The mark [13] stands for this setting: endpoint: mean survival time, dose: 200.0 mg/kg/injection, schedule: Q04DX003 (ip), vehicle: saline.
Setting [14] is: endpoint: mean survival time, dose: 400.0 mg/kg/injection, schedule: Q04DX003 (ip), vehicle: saline.

Take `C1CN2CCN1CC2.O.[Cl][Pt][Cl]`: the T/C is, setting by setting: (endpoint: mean survival time, dose: 12.5 mg/kg/injection, schedule: Q01DX005 (ip), vehicle: water) 97 % of control; (endpoint: mean survival time, dose: 25.0 mg/kg/injection, schedule: Q01DX005 (ip), vehicle: water) 92 % of control; (endpoint: mean survival time, dose: 50.0 mg/kg/injection, schedule: Q01DX005 (ip), vehicle: water) 92 % of control; (endpoint: mean survival time, dose: 50.0 mg/kg/injection, schedule: Q04DX003 (ip), vehicle: water) 102 % of control; (endpoint: mean survival time, dose: 100.0 mg/kg/injection, schedule: Q01DX005 (ip), vehicle: water) 96 % of control; (endpoint: mean survival time, dose: 100.0 mg/kg/injection, schedule: Q04DX003 (ip), vehicle: water) 94 % of control. The T/C is 96 % of control (endpoint: mean survival time, dose: 200.0 mg/kg/injection, schedule: Q01DX005 (ip), vehicle: water); 95 % of control (endpoint: mean survival time, dose: 200.0 mg/kg/injection, schedule: Q04DX003 (ip), vehicle: water); 107 % of control (endpoint: mean survival time, dose: 400.0 mg/kg/injection, schedule: Q04DX003 (ip), vehicle: water).
As to `CCOC(=O)CC(=O)c1[nH]c(C)c(C(=O)OCC)c1C`, the T/C reads like this: under setting [1], 101 % of control; under setting [2], 103 % of control; under setting [3], 101 % of control.
In the case of `C[N+](C)(CCO)Cc1ccccc1`, the T/C under setting [4] was 102 % of control; the T/C (endpoint: mean survival time, dose: 25.0 mg/kg/injection, schedule: Q04DX003 (ip), vehicle: saline with Tween-80) was 97 % of control; the T/C under setting [5] is 105 % of control; the T/C under setting [6] is 100 % of control; the T/C under setting [7] is 105 % of control; the T/C under setting [1] was 96 % of control and 101 % of control.
With `C=CC1(O)CC2CCC1C2` (configuration not stated), the T/C under setting [1] was 106 % of control, the T/C under setting [2] was 93 % of control and the T/C under setting [3] was 101 % of control.
Take `Cc1cccc(C)c1N1C(N)=NC(N)=NC1(C)C`: the T/C by setting is: under setting [8], 101 % of control; under setting [9], 93 % of control; under setting [10], 93 % of control.
For `O=C(C[n+]1ccccc1/C=N/O)c1ccccc1`, the T/C under setting [6] was 91 % of control.
As to `CCOC(=O)C(OC(=O)c1ccccc1)c1ccccc1` (configuration not stated), the T/C was 98 % of control (endpoint: mean survival time, dose: 100.0 mg/kg/injection, schedule: Q01DX009 (ip), vehicle: other); 96 % of control (endpoint: mean survival time, dose: 200.0 mg/kg/injection, schedule: Q01DX009 (ip), vehicle: other); 96 % of control (endpoint: mean survival time, dose: 400.0 mg/kg/injection, schedule: Q01DX009 (ip), vehicle: other).
In the case of `CC1(C)N=C(N)N=C(N)N1c1cccc(/C=C(\C#N)c2ccccc2)c1`, the T/C (endpoint: mean survival time, dose: 100.0 mg/kg/injection, schedule: Q04DX002 (ip), vehicle: Klucel (hydroxypropylcellulose) (HPC)) is 98 % of control and the T/C (endpoint: mean survival time, dose: 200.0 mg/kg/injection, schedule: Q04DX002 (ip), vehicle: Klucel (hydroxypropylcellulose) (HPC)) was 95 % of control.
Turning to `O=C(/C=C/C(=O)c1ccccc1)c1ccccc1`, the T/C was 92 % of control (endpoint: mean survival time, dose: 6.25 mg/kg/injection, schedule: Q01DX001 (ip), vehicle: saline with Tween-80); 107 % of control (endpoint: mean survival time, dose: 12.5 mg/kg/injection, schedule: Q01DX001 (ip), vehicle: saline with Tween-80); 96 % of control (endpoint: mean survival time, dose: 25.0 mg/kg/injection, schedule: Q01DX001 (ip), vehicle: saline with Tween-80); 89 % of control (endpoint: mean survival time, dose: 50.0 mg/kg/injection, schedule: Q01DX001 (ip), vehicle: saline with Tween-80); 94 % of control (endpoint: mean survival time, dose: 100.0 mg/kg/injection, schedule: Q01DX001 (ip), vehicle: saline with Tween-80).
Turning to `CC(=O)CC(C)(C)O`, the T/C reads like this: under setting [7], 95 % of control; (endpoint: mean survival time, dose: 100.0 mg/kg/injection, schedule: Q04DX003 (ip), vehicle: saline sonified) 102 % of control; under setting [11], 96 % of control; (endpoint: mean survival time, dose: 200.0 mg/kg/injection, schedule: Q04DX003 (ip), vehicle: saline sonified) 100 % of control; (endpoint: mean survival time, dose: 400.0 mg/kg/injection, schedule: Q01DX009 (ip), vehicle: saline with Tween-80) 95 % of control; (endpoint: mean survival time, dose: 400.0 mg/kg/injection, schedule: Q04DX003 (ip), vehicle: saline sonified) 97 % of control.
As for `COC(=O)CCN(c1ccccc1)S(=O)(=O)c1ccc(C)cc1`, the T/C is 98 % of control (endpoint: mean survival time, dose: 100.0 mg/kg/injection, schedule: Q01DX009 (ip), vehicle: Klucel (hydroxypropylcellulose) (HPC)); 100 % of control (endpoint: mean survival time, dose: 200.0 mg/kg/injection, schedule: Q01DX009 (ip), vehicle: Klucel (hydroxypropylcellulose) (HPC)); 98 % of control (endpoint: mean survival time, dose: 400.0 mg/kg/injection, schedule: Q01DX009 (ip), vehicle: Klucel (hydroxypropylcellulose) (HPC)).
For the molecule `CC(C)(C)OC(=O)Nc1cccc(O)c1`, the T/C reads like this: under setting [1], 100 % of control; under setting [2], 96 % of control; under setting [3], 93 % of control.
In the case of `CC(=O)C(C(c1ccccc1)N1CCCc2ccccc21)N1CCOCC1` (configuration not stated), the T/C by setting is: (endpoint: mean survival time, dose: 100.0 mg/kg/injection, schedule: Q04DX003 (ip), vehicle: Klucel (hydroxypropylcellulose) (HPC)) 98 % of control; (endpoint: mean survival time, dose: 200.0 mg/kg/injection, schedule: Q04DX003 (ip), vehicle: Klucel (hydroxypropylcellulose) (HPC)) 101 % of control; (endpoint: mean survival time, dose: 400.0 mg/kg/injection, schedule: Q04DX003 (ip), vehicle: Klucel (hydroxypropylcellulose) (HPC)) 108 % of control.
`O=C(Nc1ccc(C2=NCCN2)cc1)c1ccc(C(=O)Nc2ccc(C3=NCCN3)cc2)c(Cl)c1`: the T/C reads like this: (endpoint: mean survival time, dose: 0.78 mg/kg/injection, schedule: Q01DX009 (ip), vehicle: saline with Tween-80) 104 % of control; (endpoint: mean survival time, dose: 1.56 mg/kg/injection, schedule: Q01DX009 (ip), vehicle: saline with Tween-80) 104 % of control and 110 % of control and 114 % of control; (endpoint: mean survival time, dose: 2.5 mg/kg/injection, schedule: Q01DX009 (ip), vehicle: saline) 110 % of control; (endpoint: mean survival time, dose: 5.0 mg/kg/injection, schedule: Q01DX009 (ip), vehicle: saline) 110 % of control; (endpoint: mean survival time, dose: 8.0 mg/kg/injection, schedule: Q01DX008 (iv), vehicle: water) 104 % of control; (endpoint: mean survival time, dose: 12.5 mg/kg/injection, schedule: Q01DX009 (ip), vehicle: saline with Tween-80) 203 % of control. Besides, the T/C by setting is: (endpoint: mean survival time, dose: 20.0 mg/kg/injection, schedule: Q01DX009 (ip), vehicle: saline) 179 % of control; under setting [4], 250 % of control; (endpoint: mean survival time, dose: 40.0 mg/kg/injection, schedule: Q01DX009 (ip), vehicle: saline) 234 % of control; under setting [5], 86 % of control and 92 % of control; (endpoint: median survival time, dose: 10.0 mg/kg/injection, schedule: Q04DX003 (ip), vehicle: saline with Tween-80) 113 % of control; (endpoint: median survival time, dose: 40.0 mg/kg/injection, schedule: Q04DX003 (ip), vehicle: saline with Tween-80) 162 % of control. Besides, the T/C (endpoint: median survival time, dose: 80.0 mg/kg/injection, schedule: Q04DX003 (ip), vehicle: saline with Tween-80) was 228 % of control.
Turning to `OCC1CCCCCCC1`, the T/C is, setting by setting: (endpoint: mean survival time, dose: 50.0 mg/kg/injection, schedule: Q01DX001 (ip), vehicle: carboxymethylcellulose (CMC)) 100 % of control; (endpoint: mean survival time, dose: 100.0 mg/kg/injection, schedule: Q01DX001 (ip), vehicle: carboxymethylcellulose (CMC)) 100 % of control; (endpoint: mean survival time, dose: 200.0 mg/kg/injection, schedule: Q01DX001 (ip), vehicle: carboxymethylcellulose (CMC)) 102 % of control; (endpoint: mean survival time, dose: 400.0 mg/kg/injection, schedule: Q01DX001 (ip), vehicle: carboxymethylcellulose (CMC)) 96 % of control.
For the molecule `CCN(CC)C1=C(C)S(=O)(=O)C1c1ccc(C)cc1` (configuration not stated), the T/C by setting is: under setting [5], 102 % of control; under setting [8], 97 % of control; under setting [7], 98 % of control; under setting [12], 103 % of control; under setting [9], 97 % of control; under setting [11], 98 % of control. Moreover, the T/C under setting [13] is 109 % of control, the T/C under setting [10] was 97 % of control and the T/C under setting [14] was 100 % of control.
For the molecule `CC(=O)c1cc([N+](=O)[O-])ccc1O`, the T/C is 90 % of control under setting [4], 90 % of control under setting [5], 88 % of control under setting [7] and 97 % of control under setting [1].
Regarding `COCCOC(C)C(=O)C(O)S(=O)(=O)O` (configuration not stated), the T/C by setting is: (endpoint: mean survival time, dose: 50.0 mg/kg/injection, schedule: Q01DX001 (ip), vehicle: saline) 98 % of control; under setting [8], 102 % of control; under setting [12], 103 % of control; under setting [9], 100 % of control; under setting [13], 103 % of control; under setting [10], 100 % of control. Moreover, the T/C under setting [14] is 103 % of control.
